Reference: patent US7714014B2, “Targeting GLI proteins in human cancer by small molecules” (The Regents of the University of California, priority 2005, dated 2010)
“Also recorded” adds a separate entry of the source.

How the values were obtained:
Format in all cases: cell-based, human
[1] = system: melanoma cells Malme-3M, A375, G361, SK-Mel-2, SK-Mel-5, and SK-Mel-28; test: MTS cell proliferation assay; settings: 5 μM or 10 μM
Excerpt: Another assay for determining the number of viable cells in proliferation or cytotoxicity assays is the MTS assay, a calorimetric method. MTS assay reagents are commercially available (Promega Corp., Madison, Wis.). The reagent contains a tetrazolium compound [3-(4,5-dimethylthiazol-2-yl)-5-(3-carboxymethoxyphenyl)-2-(4-sulfophenyl)-2H-tetrazolium, inner salt; MTS] and an electron coupling reagent (phenazine ethosulfate; PES). PES has enhanced chemical stability, which allows it to be combined with MTS to form a stable solution. The MTS tetrazolium compound (Owen.s reagent) is bioreduced by cells into a colored formazan product that is soluble in tissue culture medium. This conversion may be accomplished by NADPH or NADH produced by dehydrogenase enzymes in metabolically active cells. The quantity of formazan product as measured by the absorbance at 490 nm is directly proportional to the number of living cells in culture. Because the MTS formazan product is soluble in tissue culture medium, this assay requires fewer steps than procedures that use tetrazolium compounds such as MTT. The formazan product of MTT reduction is a crystalline precipitate that requires an additional step in the procedure to dissolve the crystals before recording absorbance readings at 570 nm. […]

[2] = system: melanoma cell lines Malme-3M, A375, G361, SK-Mel-2, SK-Mel-5, and SK-Mel-28; test: Time course of cell survival (flow cytometry)
Method: The time course of cell survival in melanoma cell lines (Malme-3M, A375, G361, SK-Mel-2, SK-Mel-5, and SK-Mel-28) after administration of small molecule compound FN1-8 was analyzed. These melanoma cells were incubated with 10 μM or 20 μM FN1-8. Then flow cytometry was used to examine the percentage of living and dead cells at different time points. […] (FIGS. 18A, B, and C, and data not shown).

[3] = system: GLI1-induced transcription in melanoma cell lines Malme-3M, A375, SK-Mel-2, SK-Mel-5; test: 6xGLI BS-luciferase reporter assay; settings: 20 μM, 16-20 hours
Method: One day before transfection, cells (1×10^5) were plated in 12-well plates with growth medium without antibiotics. When cells reached 80-90% of confluence they were co-transfected using 0.5 μg of each promoter construct in pGL3Basic vector and 0.025 μg pRL-TK Vector (Promega; Madison, Wis.) containing Renilla Luciferase as an internal control for the transformation efficiency. Lipofectamine 2000™ (Invitrogen Life Technologies) was used to mediate transfection for about 6 hours. […] Briefly, cells were lysed in a lysis buffer and Firefly and Renilla Luciferase activities in cells of each well, were measured using Dual-Luciferase Assay System (Promega) and an illuminometer. The measured luciferase activities were normalized to pRL-TK Vector activity and were given relative to the basal activity of empty pGL3-Basic Vector, which was set to unity. The data shown represent mean values (±S.D.). All measurements were performed in triplicate and repeated in at least three independent experiments. The human Wnt-2 promoter-luciferase construct, the human SOCS3 promoter-Luciferase construct and the human Gremlin promoter-luciferase construct were cloned and characterized in the laboratory of Dr. Jablons at the University of California, San Francisco (San Francisco, Calif.; He et al., Biochem Biophy Res Comm, 2003; and unpublished data). […]

O=C(NCCc1ccc(O)cc1)C1C(c2ccccc2)=NN(c2ccccc2)C1c1ccccc1 (stereo not shown) [FN1-8, N-(2-(4-Hydroxyphenyl)ethyl)-1,3,5-triphenyl-4,5-dihydro-pyrazole-4-carboxyamide]
cell proliferation (MTS) [1]: significantly inhibited cell proliferation
time after which cell killing effect was apparent ([2]; 20 μM, all tested melanoma cells): 2 days
apoptosis in time course experiment ([2]; Malme-3M, A375, SK-Mel-5 (FIG. 14)): induces significant apoptosis
6xGLI BS-luciferase activity (GLI1-induced) [3]: significantly reduced level of luciferase activity; also recorded: down-regulates GLI1-induced transcription activity
